From patent publication US20250164476A1, “COLORIMETRIC ASSAY USING DITHIOLATE-GRAFTED NANOPARTICLES FOR HIGH-THROUGHPUT SCREENING OF CRYOPROTECTANTS” (The Government of the United States of America, as …, priority 2023, published 2025)

Columns and labels:
[1] = Ligand effect on the freezing of AuNP (96-well serial dilution); conditions: for appearance of AuNP samples in presence of test ligand: before freezing, 10 nM AuNP in 1×PBS (FIG. 5A); for type of AuNP aggregation on freezing: conclusion from frozen and post-thaw states; for colloidal color of AuNP in frozen state: frozen at −20° C. for 2 hours, serial dilution, ligands from 1 mM, sucrose 40% (FIG. 5B); for colloidal color / optical properties of AuNP at post-thaw state: thawed at room temperature for 30 minutes (FIG. 5C)
Protocol: In a sample well plate series (96 wells), a 2 millimolar (mM) stock solution of the test ligands was mixed with AuNP, resulting in a 1 mM AuNP-probe solution which was deposited as a highest concentration in respective top wells (using two columns or lanes of wells for each ligand), and was serially diluted by half using 2×PBS buffer for every following well. More specifically, the stock ligand concentration, 1 mM, was diluted by ½, ¼, ⅛, 1/16, 1/32, 1/64, 1/128, and 1/256 times (from top to bottom) by using 2×PBS. After finishing serial dilution of the target materials (four ligands, here), 50 microliters (μL) of 20 nM AuNP were added to each well of the well plate series to make a 10 nM AuNP-probe in 1×PBS in each well as a final concentration. […] See the resulting sample well plate series in FIG. 5A.
FIG. 5B is an image of the 96 well plate series of FIG. 5A after freezing. Specifically, the 96 well plate series was frozen at −20° C. for 2 hours, resulting in the frozen state of the samples depicted in FIG. 5B.
FIG. 5C is an image of the 96 well plate series of FIG. 5B after thawing. More specifically, the 96 well plate series of FIG. 5B was thawed at room temperature for 30 minutes, resulting the post-thaw state of FIG. 5C.

[2] = AuNP-TA/NTA probe colorimetric HTS titration assay for anti-icing activity; conditions: FIG. 8C; 0.2 mg/ml serially diluted, 1×PBS, frozen at −20° C. for 2 hours, thawed
Protocol: FIG. 6A is an image of a 96 well plate series titration test, utilizing an AuNP-TA/NTA probe in different test solutions at room temperature. From top to bottom there are six different testing targets: (1) AFP 0.3 mg/ml, (2) polyvinyl alcohol (PVA) 10K 0.3%, (3) bovine serum albumin (BSA) 0.3 mg/ml, (4) ethylene glycol (EG) 50%, (5) glycerol (Gly) 50%, and (6) 80 mg/ml zirconium acetate (ZrA). The buffer was 1×PBS except for the last sample ZrA, which was in 40 mM HCl (because ZrA is only active in acidic conditions). The target samples were diluted in rows by ½, ¼, ⅛, 1/16, 1/32, 1/64, 1/128, 1/256, 1/512, 1/1024, 1/2048 and 1/4096 times (from left to right) using 2×PBS or 80 mM HCl (for ZrA). Next, 50 μL of target materials were mixed with 50 μL of 20 nM AuNP-probe to make a final 1×PBS, or 40 mM HCl for the last sample, and 10 nM of AuNP probe in each well. […]
In general, titration is a common laboratory method for quantitative chemical analysis to determine the concentration of an identified analyte in terms of activity. […] Thus, it is necessary to obtain a quantified value or parameter in order to compare different test results in different conditions. […]

[3] = sucrose-based sandwich assay
Protocol: More specifically, FIGS. 10A-10F show respective anti-icing samples tested including: sucrose 40% (as a negative control), AFP (RiAFP) 0.12 mg/ml, BSA 0.12 mg/ml, 10K PVA 0.12 mg/ml, 10K PVA 1 mg/ml, and zirconium acetate (ZrN) 40 mg/ml. The buffer utilized was 0.5×PBS, with the exception of ZrN which was in 80 mM HCl. For the IRI assay, each sample was prepared with 40% sucrose as a final concentration. The following procedures were performed for each sample. Initially, 2 μL of sample was dropped between two round coverslips (borosilicate, d=1.3˜1.5 cm) and sealed with grease. The sample was then inserted into a Linkam® Scientific cryostage with liquid nitrogen (LN2) control. The sample was first frozen at −50° C. for 1 min, then the temperature was increased to −20° C. at a rate of 10° C./min, followed by a slow increase in temperature to −10° C. at a speed of 1° C./min. A sample image was then taken after annealed at −10° C. for 30 minutes without interruption.

| Compound | appearance of AuNP samples in presence of test ligand [1] | type of AuNP aggregation on freezing [1] | colloidal color of AuNP in frozen state [1] | colloidal color / optical properties of AuNP at post-thaw state [1] | anti-icing effects from concentration-dependent color changes [2] | anti-icing effect in traditional IRI test [3] |
| --- | --- | --- | --- | --- | --- | --- |
| O=C(O)CCCCC1CCSS1 (stereo not shown) [TA, thioctic acid] | well-dispersed without any color changes | irreversible aggregation | turned translucent at the highest concentrations | remained pale at the highest concentration | – | – |
| OC[C@H]1O[C@@](CO)(O[C@H]2O[C@H](CO)[C@@H](O)[C@H](O)[C@H]2O)[C@@H](O)[C@@H]1O [sucrose] | well-dispersed without any color changes | – | changed from the original red (top well, at the highest concentration) to purple, and finally to pale purple | – | – | – |
| bovine serum albumin [BSA] | – | – | – | – | low-level anti-icing effects | confirmed |
| nitrilotriacetic acid modified thioctic acid [TA-NTA] | well-dispersed without any color changes | reversible aggregation | turned translucent at the highest concentrations | almost fully recovered their intrinsic optical properties | – | – |
| sulfonate modified thioctic acid [TA-SO3] | well-dispersed without any color changes | reversible aggregation | red at the highest concentration without any aggregation | almost fully recovered their intrinsic optical properties | – | – |
